From PubChem BioAssay (NCI)
“And” between values parts separate entries of the source, which are not always exact repeats. Identical values can stand only once.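 48-hour exposure; five concentrations; linearly interpolated endpoints. Here, GI50 denotes the concentration required for 50% inhibition of growth. TGI marks complete inhibition of growth.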

Tests used:
Assay in all cases: NCI tumour cell line growth inhibition, 48 h
HCT-116 colon = tested on: HCT-116 colon
DU-145 prostate = tested on: DU-145 prostate
HCC-2998 colon = tested on: HCC-2998 colon
SNB-19 CNS = tested on: SNB-19 CNS
CAKI-1 renal = tested on: CAKI-1 renal
NCI-H460 lung = tested on: NCI-H460 lung
SF-539 CNS = tested on: SF-539 CNS
SF-295 CNS = tested on: SF-295 CNS
HOP-18 NSCLC = tested on: HOP-18 NSCLC
MDA-MB-231 breast = tested on: MDA-MB-231 breast
SW-620 colon = tested on: SW-620 colon
DMS 114 small cell lung = tested on: DMS 114 small cell lung
HT29 colon = tested on: HT29 colon
NCI-H226 lung = tested on: NCI-H226 lung
COLO 205 colon = tested on: COLO 205 colon
HS 578T breast = tested on: HS 578T breast
T-47D breast = tested on: T-47D breast
BT-549 breast = tested on: BT-549 breast
MOLT-4 leukemia = tested on: MOLT-4 leukemia
XF 498 CNS = tested on: XF 498 CNS
HOP-92 NSCLC = tested on: HOP-92 NSCLC
K-562 leukemia = tested on: K-562 leukemia
RPMI-8226 leukemia = tested on: RPMI-8226 leukemia
SN12C renal = tested on: SN12C renal
NCI-H23 lung = tested on: NCI-H23 lung
NCI/ADR-RES ovarian = tested on: NCI/ADR-RES ovarian
A549 NSCLC = tested on: A549 NSCLC
LOX IMVI melanoma = tested on: LOX IMVI melanoma
TK-10 renal = tested on: TK-10 renal
DLD-1 colon = tested on: DLD-1 colon
P388 leukemia = tested on: P388 leukemia
MCF7 breast = tested on: MCF7 breast
SK-MEL-28 melanoma = tested on: SK-MEL-28 melanoma
OVCAR-5 ovarian = tested on: OVCAR-5 ovarian
PC-3 prostate = tested on: PC-3 prostate
SK-MEL-2 melanoma = tested on: SK-MEL-2 melanoma
U251 CNS = tested on: U251 CNS
SK-MEL-5 melanoma = tested on: SK-MEL-5 melanoma
MDA-MB-435 = tested on: MDA-MB-435
ACHN renal = tested on: ACHN renal
UO-31 renal = tested on: UO-31 renal
M19-MEL melanoma = tested on: M19-MEL melanoma
M14 melanoma = tested on: M14 melanoma
SNB-78 CNS = tested on: SNB-78 CNS
SR leukemia = tested on: SR leukemia
RXF 393 renal = tested on: RXF 393 renal
EKVX NSCLC = tested on: EKVX NSCLC
SNB-75 CNS = tested on: SNB-75 CNS
UACC-257 melanoma = tested on: UACC-257 melanoma
786-0 renal = tested on: 786-0 renal
IGROV1 ovarian = tested on: IGROV1 ovarian
OVCAR-8 ovarian = tested on: OVCAR-8 ovarian
HCT-15 colon = tested on: HCT-15 colon
KM20L2 colon = tested on: KM20L2 colon
HOP-62 NSCLC = tested on: HOP-62 NSCLC
KM12 colon = tested on: KM12 colon
SF-268 CNS = tested on: SF-268 CNS
CCRF-CEM leukemia = tested on: CCRF-CEM leukemia
P388/ADR leukemia = tested on: P388/ADR leukemia
OVCAR-3 ovarian = tested on: OVCAR-3 ovarian
NCI-H522 lung = tested on: NCI-H522 lung
OVCAR-4 ovarian = tested on: OVCAR-4 ovarian
SK-OV-3 ovarian = tested on: SK-OV-3 ovarian
MALME-3M melanoma = tested on: MALME-3M melanoma
DMS 273 small cell lung = tested on: DMS 273 small cell lung
UACC-62 melanoma = tested on: UACC-62 melanoma

## O=C1C=C2C(=CCOC2O)O1 (stereo not drawn)
HCT-116 colon
  GI50: 1.14 µM
  TGI: 0.544 µM and 2.4 µM
DU-145 prostate
  GI50: 2.07 µM
  TGI: 6.48 µM
HCC-2998 colon
  GI50: 11.4 µM
SNB-19 CNS
  GI50: 3.23 µM and 12.8 µM
  TGI: 9.77 µM and 27.8 µM
CAKI-1 renal
  GI50: 1.06 µM and 1 µM
  TGI: 2.3 µM and 2.5 µM
NCI-H460 lung
  GI50: 3.86 µM
  TGI: 2.41 µM and 18.3 µM
SF-539 CNS
  GI50: 0.941 µM and 1.77 µM
  TGI: 2.13 µM and 4.57 µM
SF-295 CNS
  GI50: 3.34 µM and 6.25 µM
  TGI: 8.88 µM and 22.4 µM
HOP-18 NSCLC
  TGI: 4.77 µM
MDA-MB-231 breast
  GI50: 1.96 µM
  TGI: 5.07 µM
SW-620 colon
  GI50: 0.395 µM and 0.443 µM
  TGI: 1.23 µM and 1.88 µM
DMS 114 small cell lung
  TGI: 3.29 µM
HT29 colon
  GI50: 6.05 µM and 1.16 µM
  TGI: 22.7 µM and 3.37 µM
NCI-H226 lung
  TGI: 6.92 µM
COLO 205 colon
  GI50: 0.395 µM and 0.655 µM
  TGI: 1.04 µM and 1.97 µM
HS 578T breast
  GI50: 2.14 µM
  TGI: 9.84 µM
T-47D breast
  GI50: 1.4 µM
  TGI: 4.64 µM
BT-549 breast
  GI50: 3.28 µM
  TGI: 9.67 µM
MOLT-4 leukemia
  GI50: 3.66 µM
  TGI: 1.61 µM and 10.7 µM
XF 498 CNS
  TGI: 0.419 µM
HOP-92 NSCLC
  GI50: 2.64 µM
  TGI: 6.11 µM and 7.84 µM
K-562 leukemia
  GI50: 0.905 µM and 1.79 µM
  TGI: 3.22 µM and 10.7 µM
RPMI-8226 leukemia
  GI50: 3.6 µM
SN12C renal
  GI50: 2.59 µM
  TGI: 1.86 µM and 10 µM
NCI-H23 lung
  GI50: 2.73 µM
  TGI: 4.14 µM and 10.6 µM
NCI/ADR-RES ovarian
  GI50: 2.76 µM
  TGI: 4.35 µM and 12.5 µM
A549 NSCLC
  GI50: 5.51 µM
  TGI: 21.2 µM and 22.2 µM
LOX IMVI melanoma
  GI50: 0.227 µM and 1.57 µM
  TGI: 0.665 µM and 3.33 µM
TK-10 renal
  GI50: 0.259 µM
  TGI: 0.652 µM
DLD-1 colon
  TGI: 2.07 µM
P388 leukemia
  TGI: 0.439 µM
MCF7 breast
  TGI: 17.3 µM and 13.7 µM
SK-MEL-28 melanoma
  GI50: 1.28 µM and 2.37 µM
  TGI: 3.38 µM and 5.83 µM
OVCAR-5 ovarian
  GI50: 2.97 µM
  TGI: 15.8 µM and 7.74 µM
PC-3 prostate
  GI50: 4.69 µM
  TGI: 17.1 µM
SK-MEL-2 melanoma
  TGI: 13.6 µM
U251 CNS
  GI50: 6.92 µM and 2.65 µM
  TGI: 14.6 µM and 10 µM
SK-MEL-5 melanoma
  GI50: 2.43 µM
  TGI: 3.17 µM and 9.05 µM
MDA-MB-435
  GI50: 1.64 µM
  TGI: 3.86 µM
ACHN renal
  GI50: 1.28 µM
  TGI: 3.34 µM
UO-31 renal
  GI50: 3.98 µM and 1.24 µM
  TGI: 8.77 µM and 6.43 µM
M19-MEL melanoma
  TGI: 8.14 µM
M14 melanoma
  GI50: 1.59 µM
  TGI: 3.08 µM
SNB-78 CNS
  TGI: 11.6 µM
SR leukemia
  GI50: 2.11 µM
  TGI: 8.51 µM
RXF 393 renal
  GI50: 0.213 µM and 1.1 µM
  TGI: 0.761 µM and 3 µM
EKVX NSCLC
  GI50: 1.76 µM and 10.6 µM
  TGI: 4.64 µM and 40.4 µM
SNB-75 CNS
  GI50: 2.82 µM
  TGI: 10.1 µM and 13.2 µM
UACC-257 melanoma
  TGI: 3.85 µM
786-0 renal
  GI50: 2.67 µM
  TGI: 7.06 µM
IGROV1 ovarian
  GI50: 2.59 µM
  TGI: 9.78 µM and 6.24 µM
OVCAR-8 ovarian
  GI50: 0.734 µM and 2.57 µM
  TGI: 5.07 µM and 9.22 µM
HCT-15 colon
  GI50: 1.25 µM
  TGI: 1.98 µM and 3.23 µM
KM20L2 colon
  TGI: 12.1 µM
HOP-62 NSCLC
  TGI: 20.5 µM and 23.4 µM
KM12 colon
  GI50: 0.783 µM and 3.08 µM
  TGI: 1.85 µM and 11.2 µM
SF-268 CNS
  GI50: 1.1 µM and 3.66 µM
  TGI: 8.18 µM and 13.9 µM
CCRF-CEM leukemia
  GI50: 1.11 µM
  TGI: 0.709 µM and 6.03 µM
P388/ADR leukemia
  TGI: 0.569 µM
OVCAR-3 ovarian
  GI50: 1.7 µM and 0.664 µM
  TGI: 4.06 µM and 2.19 µM
NCI-H522 lung
  GI50: 1.12 µM
  TGI: 1.07 µM and 2.52 µM
OVCAR-4 ovarian
  TGI: 12.5 µM
SK-OV-3 ovarian
  GI50: 11.5 µM and 12.2 µM
  TGI: 20.6 µM and 24.6 µM
MALME-3M melanoma
  TGI: 2.04 µM
DMS 273 small cell lung
  TGI: 2.41 µM
UACC-62 melanoma
  GI50: 1.55 µM
  TGI: 1.64 µM and 3.2 µM
